Test results reported in patent publication US11725036B2, “Modified lipidated relaxin B chain peptides and their therapeutic use” (Sanofi, priority 2018, dated 2023).
Starred links: 1 amine or outer side, 2 acyl side, 3 side chain; linkers in the order of their positions; H or OH if unused. Non-standard residues stand in square brackets, D forms with d. Residues, ends and D or L forms follow the SMILES beside them. Groups on a side chain read outwards from the residue. *: point of attachment. X12 = CCCCCCCCCCCCCCCCCC(=O)N[C@@H](CCC(=O)N[C@@H](CCC(=O)N[C@@H](CCC(=O)N[C@@H](CCC(=O)NCCCOCCOCCOCCCNC(=O)CCC(=O)NCCCOCCOCCOCCCNC(=O)CCC(=O)NCCCOCCOCCOCCCNC(=O)CCC(=O)NCCCOCCOCCOCCCN*)C(=O)O)C(=O)O)C(=O)O)C(=O)O; X1 = CCCCCCCCCCCCCCCC(=O)N[C@@H](CCC(=O)N[C@@H](CCC(=O)N[C@@H](CCC(=O)NCCCOCCOCCOCCCNC(=O)CCC(=O)NCCCOCCOCCOCCCNC(=O)CCC(=O)NCCCOCCOCCOCCCN*)C(=O)O)C(=O)O)C(=O)O; Suc = O=C(CCC(=O)[*:2])[*:1]; hLys = NCCCCC[C@H](N)C(=O)O; Aib = CC(C)(N)C(=O)O

Target: T1, RXFP1 (Homo sapiens, UniProt Q9HBX9)
T1 construct: OVCAR5 cells expressing endogenous RXFP1; endogenous in cells; host or cells: OVCAR5
T1 sequence (Q9HBX9 1-757): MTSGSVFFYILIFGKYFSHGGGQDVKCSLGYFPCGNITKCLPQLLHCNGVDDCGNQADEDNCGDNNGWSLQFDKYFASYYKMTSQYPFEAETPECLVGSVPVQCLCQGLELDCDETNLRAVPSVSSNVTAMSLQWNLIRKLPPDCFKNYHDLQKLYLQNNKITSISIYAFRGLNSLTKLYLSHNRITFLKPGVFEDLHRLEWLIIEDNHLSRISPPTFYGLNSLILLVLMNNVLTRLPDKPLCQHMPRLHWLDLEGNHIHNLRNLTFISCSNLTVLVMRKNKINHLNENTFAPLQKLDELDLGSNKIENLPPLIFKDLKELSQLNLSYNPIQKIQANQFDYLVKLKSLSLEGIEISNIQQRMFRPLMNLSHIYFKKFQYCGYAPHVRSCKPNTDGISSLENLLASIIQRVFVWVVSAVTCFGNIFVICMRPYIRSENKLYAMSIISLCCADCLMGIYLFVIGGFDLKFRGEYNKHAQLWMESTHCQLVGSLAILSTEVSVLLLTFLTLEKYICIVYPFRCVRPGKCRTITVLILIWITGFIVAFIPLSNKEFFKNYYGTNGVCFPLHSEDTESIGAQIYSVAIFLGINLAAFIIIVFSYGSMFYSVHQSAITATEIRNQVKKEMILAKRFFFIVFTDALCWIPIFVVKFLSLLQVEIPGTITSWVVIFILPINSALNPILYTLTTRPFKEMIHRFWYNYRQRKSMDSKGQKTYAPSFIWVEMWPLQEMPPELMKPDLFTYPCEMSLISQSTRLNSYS
Assay: OVCAR5 cAMP assay (HTRF)
Type: cell-based
Settings: for Emax: OVCAR 5 cells, maximal cAMP relative to H2-relaxin; for EC50: OVCAR 5 cells expressing endogenous RXFP1, cAMP readout
Excerpt: OVCAR5 cells expressing endogenous RXFP1 were used to test RXP1 agonist properties of peptides of the invention, and in particular of the peptides of sequence SEQ ID NO: 1-97.
Since RXFP1 is a Gs coupled GPCR, cAMP was used as readout of RXFP1 activation.
Isobutyl Methyl Xanthine (IBMX) was used to inhibit phosphodiesterase activity facilitating cAMP measurements. HTRF (Homogenous Time Resolved Fluorescence) technology was used to detect cAMP due to its great sensitivity.
In summary, OVCAR5 were grown in regular medium (RPMI) containing 10% fetal calf serum (FCS) and 1% antibiotics (penicillin/streptomycin).
Before the experiments, cells were detached with accutase and incubated for 40 minutes at 37° C. with 1 mM (3-isobutyl-1-methylxanthine) IBMX.
Cells were then distributed in 384 black well plates containing increasing concentrations of the different peptides in a fix volume of medium (without FCS).
After an incubation of 30 min at 37° C. in an humid incubator in 5% CO2, the reaction was stopped by adding a fixed volume of a solution containing a lysis buffer and cAMP-D2 (cAMP labeled with the dye d2) and the anti cAMP antibody linked to Europium and used for cAMP detection.
Readout of the experiment were performed on a fluorimeter allowing HTRF measurement. Activation curves were generated by plotting the intracellular value of cAMP versus log 10 of the compound concentration.
The 50% activation concentration (EC50) was calculated by nonlinear regression using the sigmoidal dose-response (variable slope) equation with Prism 5 software.
Emax % was determined as the maximal intracellular value of cAMP for test compound (upper limit of cAMP vs concentration curve) divided by the maximal intracellular value of cAMP for H2-relaxin determined in the same test occasion multiplied by 100. Emax %=100×[cAMPtest cpd]/[cAMPH2-Rlx]

Emax [%] | EC50 [nM] | SMILES
99 |  | CCCCCCCCCCCCCCCCCC(=O)N[C@@H](CCC(=O)N[C@@H](CCC(=O)N[C@@H](CCC(=O)N[C@@H](CCC(=O)NCCCOCCOCCOCCCNC(=O)CCC(=O)NCCCOCCOCCOCCCNC(=O)CCC(=O)NCCCOCCOCCOCCCNC(=O)CCC(=O)NCCCOCCOCCOCCCNC(=O)CCC(=O)NCCCC[C@H](NC(=O)CNC(=O)[C@H](CCC(=O)O)NC(=O)C(C)(C)NC(=O)C(C)(C)NC(=O)[C@@H](NC(=O)[C@H](CCCCNC(C)=O)NC(=O)[C@H](C)NC(=O)[C@H](CCCNC(=N)N)NC(=O)[C@@H](NC(=O)[C@H](CCCCN)NC(=O)[C@H](CCC(=O)O)NC(=O)[C@H](CCCNC(=N)N)NC(=O)CNC(=O)[C@H](CCC(=O)O)NC(=O)[C@H](CC(C)C)NC(C)=O)C(C)C)[C@@H](C)CC)C(=O)N[C@@H](CO)C(=O)N[C@H](C(=O)N[C@@H](Cc1c[nH]c2ccccc12)C(=O)N[C@@H](CO)C(=O)NC(C)(C)C(=O)N[C@@H](CCCNC(=N)N)C(=O)N[C@@H](CCCCN)C(=O)N[C@@H](CCCCNC(C)=O)C(N)=O)[C@@H](C)O)C(=O)O)C(=O)O)C(=O)O)C(=O)O [compound 59] (Ac-LEGREKVRAK(Ac)I[Aib][Aib]EGK([Suc-X12])STWS[Aib]RKK(Ac)-NH2)
95 | 0.45 | CCCCCCCCCCCCCCCC(=O)N[C@@H](CCC(=O)N[C@@H](CCC(=O)N[C@@H](CCC(=O)NCCCOCCOCCOCCCNC(=O)CCC(=O)NCCCOCCOCCOCCCNC(=O)CCC(=O)NCCCOCCOCCOCCCNC(=O)CCC(=O)NCCCC[C@H](NC(=O)CNC(=O)[C@H](CCC(=O)O)NC(=O)C(C)(C)NC(=O)C(C)(C)NC(=O)[C@@H](NC(=O)[C@H](CCCCNC(C)=O)NC(=O)[C@H](C)NC(=O)[C@H](CCCNC(=N)N)NC(=O)[C@@H](NC(=O)[C@H](CCCCN)NC(=O)[C@H](CCC(=O)O)NC(=O)[C@H](CCCNC(=N)N)NC(=O)CNC(=O)[C@H](CCC(=O)O)NC(=O)[C@H](CC(C)C)NC(C)=O)C(C)C)[C@@H](C)CC)C(=O)N[C@@H](CO)C(=O)N[C@@H](CCCCN)C(=O)N[C@@H](Cc1ccccc1)C(=O)N[C@@H](CO)C(=O)NC(C)(C)C(=O)N[C@@H](CCCNC(=N)N)C(=O)N[C@@H](CCCCN)C(=O)N[C@@H](CCCCNC(C)=O)C(N)=O)C(=O)O)C(=O)O)C(=O)O [compound 79] (Ac-LEGREKVRAK(Ac)I[Aib][Aib]EGK([Suc-X1])SKFS[Aib]RKK(Ac)-NH2)
98 | 0.44 | CCCCCCCCCCCCCCCC(=O)N[C@@H](CCC(=O)N[C@@H](CCC(=O)N[C@@H](CCC(=O)NCCCOCCOCCOCCCNC(=O)CCC(=O)NCCCOCCOCCOCCCNC(=O)CCC(=O)NCCCOCCOCCOCCCNC(=O)CCC(=O)NCCCC[C@H](NC(=O)CNC(=O)[C@H](CCC(=O)O)NC(=O)C(C)(C)NC(=O)C(C)(C)NC(=O)[C@@H](NC(=O)[C@H](CCCCNC(C)=O)NC(=O)[C@H](C)NC(=O)[C@H](CCCNC(=N)N)NC(=O)[C@@H](NC(=O)[C@H](CCCCN)NC(=O)[C@H](CCC(=O)O)NC(=O)[C@H](CCCNC(=N)N)NC(=O)CNC(=O)[C@H](CCC(=O)O)NC(=O)[C@H](CC(C)C)NC(C)=O)C(C)C)[C@@H](C)CC)C(=O)N[C@@H](CO)C(=O)N[C@H](C(=O)N[C@@H](Cc1c[nH]c2ccccc12)C(=O)N[C@@H](CO)C(=O)N[C@@H](CCCCCN)C(=O)N[C@@H](CCCNC(=N)N)C(=O)N[C@@H](C)C(=O)N[C@@H](CCCCNC(C)=O)C(N)=O)[C@@H](C)O)C(=O)O)C(=O)O)C(=O)O [compound 57] (Ac-LEGREKVRAK(Ac)I[Aib][Aib]EGK([Suc-X1])STWS[hLys]RAK(Ac)-NH2)
